For experiment [1], the system named is MCF-7 cells (breast cancer cells expressing estrogen receptors). Briefly: Anti-proliferative effect, [3H]-thymidine incorporation into DNA. As to conditions: line MCF-7, increasing concentrations, up to 72 hours, FIG. 1. In kind it is cell-based, human. As to the method:
(§1) The activity of the tetramerous derivative has been evaluated both in breast cancer cells grown in laboratory expressing estrogen receptors (line MCF-7) and in cells which are negative for said receptors (line MDA-MB-234).
(§2) MCF-7 and MDA-MB-234 cells have been grown in laboratory in a DMEM medium added with 10% of bovine fetal serum, 1% of a penicillin-streptomycin solution, 1% of a solution of non-essential amino acids, 2 mM glutamine and for MCF-7 also with 10 ug/ml of insulin. For the tests the cells are taken and used in their logarithmic growth phase, suspending them again the same fresh medium and exposing them to the tetramerous derivative up to 72 hours at 37° C. in an atmosphere with 5% of CO2. Before the treatment the cells are grown for some hours so as to adhere well to the plastic and start proliferating. In the tests concerning the evaluation of the anti-proliferative activity the synthesis of DNA is evaluated by adding to the cultures 3 μCi/ml of [3H]-thymidine 6 hours before the end of the treatment.
(§3) The cells are exposed during the culture to increasing concentrations of tetramerous derivative, then evaluating the degree of inhibition of their proliferation by incorporating into the DNA tritium-added thymidine (Cover C. M. et al., 1998, Journal of Biological Chemistry no. 273, page 3838-3847).
For orientation: Uptake of a labelled nucleoside into DNA is a usual measure of proliferation.

Experiment [2] has as its system MDA-MB-234 cells (negative for estrogen receptors). The experiment is described as above. The format is cell-based, human. As to conditions: line MDA-MB-234, increasing concentrations, up to 72 hours, FIG. 2. On the procedure:
as §1, §2, §3

The test system of experiment [3] is cyclin-dependent kinase cdk6. In words: Western blot, level of expression of cdk6 in MCF-7. In kind it is cell-based, human. As to conditions: FIG. 6. An excerpt: (§4) SDS-PAGE (Laemmli U.K. 1970, Nature 227, 680-685) and Western Blot (Towbin H., Staehelin T., Gordon J. 1979, Proc. Natl:Acad. Sci. USA 76, 4350-4354) techniques have been used to analyze the expression of proteins known as fundamental targets (markers) in the control of the cellular cycle, whose modifications often lead to an uncontrolled cell proliferation: cyclin-dependent kinase cdk6 (Cover C. M., et al, 1998, J. Biol. Chem. 273, 3838-3847), inhibitor p27 (Wang X., et al., 1997, Oncogene 15, 2991-2997; Vidal A., Koff A. 2000, Gene 247, 1-15) and retinoblastoma Rb (Dyson N. 1998, Genes & Development 12, 2245-2262; Guardavaccaro D., et al., 2000, Mol. Cell. Biol. 20 (5), 1797-1815).
(§5) After growing the cells as previously described, the cell cultures undergo the action of increasing doses of tetramerous derivative. Then culture samples are taken and the cells are lysated with B buffer (Hepes 20 mM pH 7.5, NaCl 420 mM, MgCl2 1.5 mM, EDTA 0.2 mM, glycerol 25%) in presence of antiproteolytic agents Nonidet P40 0.5% (v/v), kept under ice for 20 minutes and centrifuged at 12,000 rpm for 10 minutes at 4° C.
(§6) The cell lysate (supernatant liquor) is then diluted 1:1 with Sample Buffer 2× and charged into SDS-PAGE at 12% of acrylamide following Laemmli's method (Laemmli U.K. 1970, Nature 227, 680-685). […]
On the technique in general: Immunoblotting shows a protein as a band on a membrane.

The subject of experiment [4] is inhibitor p27. In words: Western blot, level of protein p27 in MCF-7. The format is cell-based, human. The following applies: MCF-7, same concentrations as for cdk6, FIG. 7.
Excerpt: as §4, §5, §6

The subject of the next experiment is MDA-MB-234 cells. Briefly: Cytotoxicity, vital cell count with trypan blue. The format is cell-based, human. As to conditions: MDA-MB-234, FIG. 4. As to the method:
(§7) In a second set of tests the activity of the tetramerous derivative on the two cell lines has been evaluated as cytotoxicity using a method (Magnani M. et al., 1995, Biochemical Journal no. 312, page 115-123) which allows to recognize vital from dead cells.
(§8) MCF-7 and MDA-MB-234 cells have been grown as previously described. Then, after 24 and after 72 hours of exposition to the tetramerous derivative they are taken and counted in duplicate in a hemocytometer using trypan blue dye to exclude dead cells.

The test system of a further experiment is MCF-7 cells. In words: Cytotoxicity, vital cell count with trypan blue. In kind it is cell-based, human. As to the method:
as §7, §8

Experiment [5] relates to inhibitor p27. In words: Western blot, p27 in MDA-MB-234. In kind it is cell-based, human.
Excerpt: as §4
(§9) After growing the cells as previously described, the cell cultures undergo the action of increasing doses of tetramerous derivative. Then culture samples are taken and the cells are lysated with B buffer (Hepes 20 mM pH 7.5, NaCl 420 mM, MgCl2 1.5 mM, EDTA 0.2 mM, glycerol 25%) in presence of antiproteolytic agents Nonidet P40 0.5% (v/v), kept under ice for 20 minutes and centrifuged at 12,000 rpm for 10 minutes at 4° C. […]
(§10) Said markers are then evaluated as previously described on estrogen-negative cell line MDA-MB-234.

A further experiment relates to enzyme cdk6. In words: Western blot, cdk6 in MDA-MB-234. The format is cell-based, human.
Excerpt: as §4, §9, §10

The next experiment concerns retinoblastoma Rb. Briefly: Western blot, phosphorylation of Rb factor (pRb). The following applies: Homo sapiens, FIG. 9. The format is cell-based.
Excerpt: as §4, §5, §6

The inhibition is how much of the control response was suppressed. As to `c1ccc2c3c([nH]c2c1)Cc1c([nH]c2ccccc12)Cc1c([nH]c2ccccc12)Cc1c([nH]c2ccccc12)C3` [tetramerous derivative], the “inhibition of cell proliferation” value in experiment [1] and in experiment [2] was “inhibits in a dose-dependent way” each time. The “level of expression of cdk6” value in [3] (MCF-7, 15 μM) is “great reduction”; in experiment [3] (MCF-7, 50 μM), “sudden decrease”. Moreover, the “level of protein p27” value in the experiment on inhibitor p27 [4] is “increases”. Besides, the “toxicity (percentage of vital cells) in relation to amount administered” value is “dose-dependent” in the experiment with MDA-MB-234 cells and “dose-dependent” with MCF-7 cells (MCF-7, FIG. 3). Further, the “toxicity (percentage of vital cells) in relation to time of administration” value with MCF-7 cells (MCF-7, 24 and 72 hours, FIG. 5) is reported as “time-dependent”. Besides, the “level of inhibitor p27” value with inhibitor p27 [5] is on record as “increase”. In the experiment on enzyme cdk6, the “level of enzyme cdk6” value was “reduction”. For the same molecule, 30 µM produced 60% inhibition in the experiment with retinoblastoma Rb.

Values taken from US7645788B2, “Tetramerous derivative of indole-3-carbinol with anti-carcinogenic activity and method of synthesis of said derivative” (Universita' Degli Studi Di Urbino, priority 2001, dated 2010).
